This is an account of results in ChEMBL document CHEMBL1221206, “Targeting virulence: a new paradigm for antimicrobial therapy” (Nat Chem Biol, 2007).

The test system of this experiment is 5637. Put plainly: Inhibition of type-1 pilus-mediated Escherichia coli HB101 adhesion to human 5637 cells after 1 hr. The class given is cell-based. As to conditions: dose or concentration not given here.

As a reminder, the inhibition is the relative decrease from the control value, in per cent. A lower inhibition goes with a weak effect. Compound `CN(C)Cc1c(Cc2cccc3ccccc23)c(-c2ccccc2)c2n(c1=O)[C@H](C(=O)O)CS2` showed an inhibition of 90%.
